Patent US20180042923A1, “COMBINATIONS COMPRISING BREXPIPRAZOLE OR A SALT THEREOF AND A SECOND DRUG FOR USE IN THE TREATMENT OF A CNS DISORDER” (priority 2011, published 2018)

Columns and labels:
ddY male mice = assay: Forced swimming test in mice (antidepressant action); type: in vivo
Method: When an antidepressant is administered in advance, the immobility time is shortened. The shortened immobility time is used as an index of an antidepressant action to be evaluated. This test method is widely used as an experimental animal model reflecting the clinical antidepressant effect.
In this test, the action of a combined use of 7-[4-(4-benzo[b]thiophen-4-yl-piperazin-1-yl)butoxy]-1H-quinolin-2-one (Compound (I)) and 9 kinds of antidepressants (serotonin reuptake inhibitors, or serotonin and norepinephrine reuptake inhibitors) on the immobility time was compared.
As the animal, ddY male mice (5 to 6-week-old) were used. Various antidepressants and Compound (I) or each vehicle were administered to the mice before the start of the test, the mice were placed in a cylindrical water tank, and immobility time during 2 min to 4 min after the start of swimming was measured by a behavior analysis apparatus with an infrared sensor (SCANET; Melquest Co., Ltd.).
Compound (I) was dissolved in 1% lactic acid-physiological saline, and various antidepressants were suspended or dissolved in 5% gum arabic-distilled water and used. Various antidepressants (fluoxetine (75 mg/kg), escitalopram (60 mg/kg), paroxetine (10 mg/kg), sertraline (15 mg/kg), venlafaxine (15 mg/kg), milnacipran (30 mg/kg), fluvoxamine (75 mg/kg)) were orally administered 60 min before the start of the test, duloxetine (20 mg/kg) and desvenlafaxine (20 mg/kg) were orally administered 30 min before the start of the test, and Compound (I) (0.001 or 0.003 mg/kg) was intraperitoneally administered 15 min before the start of the test.

male ddY mice = assay: Mouse marble-burying behavior test; type: in vivo; conditions: Compound (I) 0.1 mg/kg p.o., 30 min before test, n=10
Source text: Marble-burying behavior test is a behavioral evaluation test utilizing the behavior of a mouse to bury marbles on the bedding. Since this characteristic behavior of burying harmless glass marbles in the bedding reflects the anxiety state of the animal, and is apparently similar to a compulsive act of obsessive-compulsive disorder patient, which is repeated with the recognition of irrationality, it is particularly considered a model of obsessive-compulsive disorder^1),2),3),4).
As the animal, male ddY mice (6- to 7-week-old) were used. In the test, a plastic cage (26×32×17 cm) was filled with chips to about 5 cm deep in a soundproof room, and 25 marbles (diameter 15 mm, weight about 6 g) were placed thereon at equal distances. Each mouse was orally administered with Compound (I) simultaneously with an antianxiety drug or an antidepressant or a vehicle thereof, and 30 min later, each mouse was placed in a cage containing the marbles. 30 min later, the animal was taken out from the cage, and the number of marbles covered with chips by ⅔ or more was visually counted.
Compound (I) (0.1 mg/kg) and various antidepressants (fluoxetine (10 mg/kg), paroxetine (10 mg/kg), sertraline (10 mg/kg), fluvoxamine (15 mg/kg)) were suspended in 5% gum arable-distilled water, and diazepam (antianxiety drug, 1 mg/kg) was diluted with physiological saline and used. All drugs and vehicles thereof were orally administered 30 min before the start of the test.

[1] = Compound (I) 0.001 mg/kg i.p. 15 min before test, venlafaxine 15 mg/kg p.o. 60 min before, n=10
[2] = Compound (I) 0.003 mg/kg i.p. 15 min before test, desvenlafaxin 20 mg/kg p.o. 30 min before, n=8
[3] = Compound (I) 0.003 mg/kg i.p. 15 min before test, duloxetine 20 mg/kg p.o. 30 min before, n=7
[4] = Compound (I) 0.003 mg/kg i.p. 15 min before test, escitalopram 60 mg/kg p.o. 60 min before, n=10
[5] = Compound (I) 0.003 mg/kg i.p. 15 min before test, fluoxetine 75 mg/kg p.o. 60 min before, n=10
[6] = Compound (I) 0.003 mg/kg i.p. 15 min before test, fluvoxamine 75 mg/kg p.o. 60 min before, n=10
[7] = Compound (I) 0.003 mg/kg i.p. 15 min before test, milnacipran 30 mg/kg p.o. 60 min before, n=10
[8] = Compound (I) 0.003 mg/kg i.p. 15 min before test, paroxetine 10 mg/kg p.o. 60 min before, n=10
[9] = Compound (I) 0.003 mg/kg i.p. 15 min before test, sertraline 15 mg/kg p.o. 60 min before, n=7

## O=c1ccc2ccc(OCCCCN3CCN(c4cccc5sccc45)CC3)cc2[nH]1 [Compound (I), 7-[4-(4-benzo[b]thiophen-4-yl-piperazin-1-yl)butoxy]-1H-quinolin-2-one]
ddY male mice; [1]
  immobility time relative to control (%): 99%
ddY male mice; [2]
  immobility time relative to control (%): 96%
ddY male mice; [3]
  immobility time relative to control (%): 98%
ddY male mice; [4]
  immobility time relative to control (%): 96%
ddY male mice; [5]
  immobility time relative to control (%): 100%
ddY male mice; [6]
  immobility time relative to control (%): 100%
ddY male mice; [7]
  immobility time relative to control (%): 101%
ddY male mice; [8]
  immobility time relative to control (%): 98%
ddY male mice; [9]
  immobility time relative to control (%): 87%
Male ddY mice; diazepam 1 mg/kg p.o.
  number of marbles buried (average ± standard error): 14.4 ± 2.0
  number of marbles buried relative to control (%): 96%
Male ddY mice; fluoxetine 10 mg/kg p.o.
  number of marbles buried (average ± standard error): 14.4 ± 2.0
  number of marbles buried relative to control (%): 82%
Male ddY mice; fluvoxamine 15 mg/kg p.o.
  number of marbles buried (average ± standard error): 14.0 ± 1.6
  number of marbles buried relative to control (%): 86%
Male ddY mice; paroxetine 10 mg/kg p.o.
  number of marbles buried (average ± standard error): 11.3 ± 1.5
  number of marbles buried relative to control (%): 90%
Male ddY mice; sertraline 10 mg/kg p.o.
  number of marbles buried (average ± standard error): 12.2 ± 2.2
  number of marbles buried relative to control (%): 91%

## CN(C)CC(c1ccc(O)cc1)C1(O)CCCCC1 (centres unmarked) [desvenlafaxin, desvenlafaxine]
ddY male mice; [2]
  immobility time relative to control (%): 95%

## CN1C(=O)CN=C(c2ccccc2)c2cc(Cl)ccc21 [diazepam]
Male ddY mice; diazepam 1 mg/kg p.o.
  number of marbles buried (average ± standard error): 12.8 ± 2.0
  number of marbles buried relative to control (%): 85%

## CNCC[C@H](Oc1cccc2ccccc12)c1cccs1 [duloxetine]
ddY male mice; [3]
  immobility time relative to control (%): 95%

## CN(C)CCC[C@@]1(c2ccc(F)cc2)OCc2cc(C#N)ccc21 [escitalopram]
ddY male mice; [4]
  immobility time relative to control (%): 95%

## CNCCC(Oc1ccc(C(F)(F)F)cc1)c1ccccc1 (centres unmarked) [fluoxetine]
ddY male mice; [5]
  immobility time relative to control (%): 92%
Male ddY mice; fluoxetine 10 mg/kg p.o.
  number of marbles buried (average ± standard error): 17.3 ± 1.5
  number of marbles buried relative to control (%): 98%

## COCCCC/C(=N\OCCN)c1ccc(C(F)(F)F)cc1 [fluvoxamine]
ddY male mice; [6]
  immobility time relative to control (%): 95%
Male ddY mice; fluvoxamine 15 mg/kg p.o.
  number of marbles buried (average ± standard error): 13.5 ± 2.1
  number of marbles buried relative to control (%): 83%

## CCN(CC)C(=O)C1(c2ccccc2)CC1CN (centres unmarked) [milnacipran]
ddY male mice; [7]
  immobility time relative to control (%): 97%

## Fc1ccc([C@@H]2CCNC[C@H]2COc2ccc3c(c2)OCO3)cc1 [paroxetine]
ddY male mice; [8]
  immobility time relative to control (%): 98%
Male ddY mice; paroxetine 10 mg/kg p.o.
  number of marbles buried (average ± standard error): 8.5 ± 2.0
  number of marbles buried relative to control (%): 60%

## CN[C@H]1CC[C@@H](c2ccc(Cl)c(Cl)c2)c2ccccc21 [sertraline]
ddY male mice; [9]
  immobility time relative to control (%): 91%
Male ddY mice; sertraline 10 mg/kg p.o.
  number of marbles buried (average ± standard error): 7.5 ± 0.7
  number of marbles buried relative to control (%): 56%

## COc1ccc(C(CN(C)C)C2(O)CCCCC2)cc1 (centres unmarked) [venlafaxine]
ddY male mice; [1]
  immobility time relative to control (%): 96%
